Reference: US12629355B2, “Drug inhibitor against migration and invasion of cancer cells and methods of treating against metastasis of cancer cells” (HOWARD UNIVERSITY, priority 2019, dated 2026)

Target: T1, RACK1A Y248 phosphorylation (Arabidopsis thaliana, UniProt O24456)
T1 construct: from tissue; host or cells: one-week old Arabidopsis seedlings (whole-seedling lysate)
Experiment: Stress hormone (ABA) induced RACK1A Y248 phosphorylation in Arabidopsis seedlings, western blot (FIG. 1)
Type: cell-based
Details: 10 uM ABA, 12 hours
Text: The results of lab experiment establish the compounds identified by in silico screen to prevent RACK1 Y248 phosphorylation can inhibit RACK1 Y248 phosphorylation and confirm their utility in their application in RACK1 mediated cellular pathways. Y248 phosphorylation has previously been identified as a key event needed for RACK1 mediated scaffolding activities by regulating protein-protein interactions in plants. The corresponding residue in human RAKI is also a key requirement for scaffolding activities needed at the receptor level during the invasion and migration of cancer cells. […] The knock-out plant did maintain both the RACK1B protein and the RACK1C protein, but the antibody was raised to detect the RACK1A Y248 phosphorylation only.
As to FIG. 1, since RACK1 is a regulator of plant stress hormone Abscisic acid (ABA) (Guo et al., 2009), one-week old Arabidopsis seedlings were treated with 10 uM of ABA in the presence/absence of the inhibitor compounds for 12 hours in a growth chamber (overnight) at 22 C mostly in the night dark. Lysates isolated in buffer (Cell Signaling, MA) supplemented with plant protease inhibitor (Sigma-Aldrich), Protein Tyrosine phosphatase inhibitors (Santa Cruz Biotechnology, TX), and N-Ethylamaleimide (Sigma-Aldrich) at 25 mM to inhibit de-sumoylation. […]

T1 sequence (O24456 whole entry): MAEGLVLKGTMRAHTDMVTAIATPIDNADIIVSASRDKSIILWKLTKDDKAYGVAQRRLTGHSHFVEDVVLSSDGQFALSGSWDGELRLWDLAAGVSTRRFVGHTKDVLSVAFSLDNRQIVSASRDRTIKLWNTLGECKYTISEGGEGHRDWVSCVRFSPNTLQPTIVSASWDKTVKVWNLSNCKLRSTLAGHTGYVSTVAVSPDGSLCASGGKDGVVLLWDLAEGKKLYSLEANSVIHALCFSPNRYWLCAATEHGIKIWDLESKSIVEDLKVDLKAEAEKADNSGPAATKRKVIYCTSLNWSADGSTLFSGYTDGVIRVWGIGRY

Nn1c(S)nnc1-c1ccc(F)cc1 [SD 29, reference compound]
RACK1A Y248 phosphorylation with stress hormone present: prevents Y248 phosphorylation
